According to ChEMBL document CHEMBL1201862, “PubChem BioAssay data set” (2004):
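1) Cells in 96-well plates. 2) Compound, 48 h, 5 concentrations. 3) Linear interpolation between surrounding doses. 4) Unreached endpoint = highest concentration. GI50 = concentration required for 50% inhibition of growth.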 Activity calls are given as the source filed them. No stated cut-off is given here; in the data, active = GI50 up to about 1.1 µM and inactive = higher.

Legend:
Experiment in all cases: inhibition of tumour cell growth, NCI panel, 48 h
SF-295 = tested on: SF-295
U-251 = tested on: U-251
T47D = tested on: T47D
SR = tested on: SR
HCT-15 = tested on: HCT-15
MCF7 = tested on: MCF7
NCI/ADR-RES = tested on: NCI/ADR-RES
NCI-H23 = tested on: NCI-H23
CAKI-1 = tested on: CAKI-1
SK-MEL-5 = tested on: SK-MEL-5
SK-OV-3 = tested on: SK-OV-3
Malme-3M = tested on: Malme-3M
OVCAR-8 = tested on: OVCAR-8
SK-MEL-2 = tested on: SK-MEL-2
SF-268 = tested on: SF-268
Hs-578T = tested on: Hs-578T
RXF 393 = tested on: RXF 393
A549 = tested on: A549
K562 = tested on: K562
IGROV-1 = tested on: IGROV-1
NCI-H226 = tested on: NCI-H226
HCT-116 = tested on: HCT-116
OVCAR-5 = tested on: OVCAR-5
DU-145 = tested on: DU-145
NCI-H522 = tested on: NCI-H522
NCI-H460 = tested on: NCI-H460
PC-3 = tested on: PC-3
UACC-62 = tested on: UACC-62
EKVX = tested on: EKVX
MDA-MB-231 = tested on: MDA-MB-231
UO-31 = tested on: UO-31
HOP-62 = tested on: HOP-62
SNB-75 = tested on: SNB-75
HCC 2998 = tested on: HCC 2998
SF-539 = tested on: SF-539
OVCAR-4 = tested on: OVCAR-4
786-0 = tested on: 786-0
M14 = tested on: M14
MDA-N = tested on: MDA-N
SW-620 = tested on: SW-620
OVCAR-3 = tested on: OVCAR-3
ACHN = tested on: ACHN
SK-MEL-28 = tested on: SK-MEL-28
TK-10 = tested on: TK-10
UACC-257 = tested on: UACC-257
SNB-19 = tested on: SNB-19
KM12 = tested on: KM12
CCRF-CEM = tested on: CCRF-CEM
COLO 205 = tested on: COLO 205
A498 = tested on: A498
HT-29 = tested on: HT-29
HL-60 = tested on: HL-60
MOLT-4 = tested on: MOLT-4
BT-549 = tested on: BT-549
SN12C = tested on: SN12C
LOX IMVI = tested on: LOX IMVI
HOP-92 = tested on: HOP-92
MDA-MB-435 = tested on: MDA-MB-435
RPMI-8226 = tested on: RPMI-8226

Compound: CCCCS(=O)(=O)CCC(N)C(=O)O (stereo unspecified)
- GI50 (SF-295): > 100 µM (inactive)
- GI50 (U-251): > 100 µM (inactive)
- GI50 (T47D): > 100 µM (inactive)
- GI50 (SR): > 100 µM (inactive)
- GI50 (HCT-15): > 100 µM
- GI50 (MCF7): > 100 µM (inactive)
- GI50 (NCI/ADR-RES): > 100 µM (inactive)
- GI50 (NCI-H23): > 100 µM (inactive)
- GI50 (CAKI-1): > 100 µM (inactive)
- GI50 (SK-MEL-5): > 100 µM (inactive)
- GI50 (SK-OV-3): > 100 µM (inactive)
- GI50 (Malme-3M): > 100 µM (inactive)
- GI50 (OVCAR-8): > 100 µM (inactive)
- GI50 (SK-MEL-2): > 100 µM (inactive)
- GI50 (SF-268): > 100 µM (inactive)
- GI50 (Hs-578T): > 100 µM (inactive)
- GI50 (RXF 393): 36.1 µM (inactive)
- GI50 (A549): > 100 µM (inactive)
- GI50 (K562): > 100 µM (inactive)
- GI50 (IGROV-1): > 100 µM (inactive)
- GI50 (NCI-H226): > 100 µM (inactive)
- GI50 (HCT-116): > 100 µM (inactive)
- GI50 (OVCAR-5): > 100 µM (inactive)
- GI50 (DU-145): > 100 µM (inactive)
- GI50 (NCI-H522): > 100 µM (inactive)
- GI50 (NCI-H460): > 100 µM (inactive)
- GI50 (PC-3): > 100 µM (inactive)
- GI50 (UACC-62): > 100 µM (inactive)
- GI50 (EKVX): > 100 µM (inactive)
- GI50 (MDA-MB-231): > 100 µM (inactive)
- GI50 (UO-31): > 100 µM (inactive)
- GI50 (HOP-62): > 100 µM (inactive)
- GI50 (SNB-75): > 100 µM (inactive)
- GI50 (HCC 2998): > 100 µM (inactive)
- GI50 (SF-539): > 100 µM (inactive)
- GI50 (OVCAR-4): > 100 µM (inactive)
- GI50 (786-0): > 100 µM (inactive)
- GI50 (M14): > 100 µM (inactive)
- GI50 (MDA-N): > 100 µM (inactive)
- GI50 (SW-620): > 100 µM (inactive)
- GI50 (OVCAR-3): > 100 µM (inactive)
- GI50 (ACHN): > 100 µM (inactive)
- GI50 (SK-MEL-28): > 100 µM (inactive)
- GI50 (TK-10): > 100 µM (inactive)
- GI50 (UACC-257): > 100 µM (inactive)
- GI50 (SNB-19): > 100 µM (inactive)
- GI50 (KM12): > 100 µM (inactive)
- GI50 (CCRF-CEM): > 100 µM (inactive)
- GI50 (COLO 205): > 100 µM (inactive)
- GI50 (A498): > 100 µM (inactive)
- GI50 (HT-29): > 100 µM (inactive)
- GI50 (HL-60): > 100 µM (inactive)
- GI50 (MOLT-4): > 100 µM (inactive)
- GI50 (BT-549): > 100 µM (inactive)
- GI50 (SN12C): > 100 µM (inactive)

Compound: COc1ccc(N2C(=O)/C(=C\c3cc(OC)c(OC)c(OC)c3)SC2c2ccccc2)cc1 (stereo unspecified)
- GI50 (SF-295): 50.5 µM (inactive)
- GI50 (U-251): 56.5 µM (inactive)
- GI50 (T47D): 42.6 µM (inactive)
- GI50 (SR): 28.4 µM (inactive)
- GI50 (HCT-15): 58.2 µM
- GI50 (MCF7): 44.2 µM (inactive)
- GI50 (NCI/ADR-RES): 34.8 µM (inactive)
- GI50 (LOX IMVI): 29.6 µM (inactive)
- GI50 (NCI-H23): 33.1 µM (inactive)
- GI50 (CAKI-1): > 100 µM (inactive)
- GI50 (SK-MEL-5): 23.7 µM (inactive)
- GI50 (SK-OV-3): 81.7 µM (inactive)
- GI50 (Malme-3M): 54.6 µM (inactive)
- GI50 (OVCAR-8): 95.9 µM (inactive)
- GI50 (SK-MEL-2): > 100 µM (inactive)
- GI50 (SF-268): > 100 µM (inactive)
- GI50 (Hs-578T): 50.9 µM (inactive)
- GI50 (RXF 393): 42.1 µM (inactive)
- GI50 (A549): > 100 µM (inactive)
- GI50 (HOP-92): > 100 µM (inactive)
- GI50 (K562): 38.3 µM (inactive)
- GI50 (NCI-H226): > 100 µM (inactive)
- GI50 (HCT-116): 71.9 µM (inactive)
- GI50 (OVCAR-5): > 100 µM (inactive)
- GI50 (DU-145): > 100 µM (inactive)
- GI50 (NCI-H522): 16.6 µM (inactive)
- GI50 (NCI-H460): 67 µM (inactive)
- GI50 (UACC-62): 58.9 µM (inactive)
- GI50 (MDA-MB-435): 27.4 µM (inactive)
- GI50 (EKVX): 83.9 µM (inactive)
- GI50 (RPMI-8226): 31.3 µM (inactive)
- GI50 (MDA-MB-231): > 100 µM (inactive)
- GI50 (UO-31): 46.7 µM (inactive)
- GI50 (HOP-62): > 100 µM (inactive)
- GI50 (HCC 2998): > 100 µM (inactive)
- GI50 (SF-539): > 100 µM (inactive)
- GI50 (OVCAR-4): 79.8 µM (inactive)
- GI50 (786-0): > 100 µM (inactive)
- GI50 (M14): 55.7 µM (inactive)
- GI50 (MDA-N): 25.4 µM (inactive)
- GI50 (SW-620): > 100 µM (inactive)
- GI50 (OVCAR-3): > 100 µM (inactive)
- GI50 (ACHN): 62.4 µM (inactive)
- GI50 (SK-MEL-28): > 100 µM (inactive)
- GI50 (TK-10): > 100 µM (inactive)
- GI50 (UACC-257): 57.3 µM (inactive)
- GI50 (SNB-19): > 100 µM (inactive)
- GI50 (KM12): 51.6 µM (inactive)
- GI50 (CCRF-CEM): 21.2 µM (inactive)
- GI50 (COLO 205): 62.5 µM (inactive)
- GI50 (A498): > 100 µM (inactive)
- GI50 (HT-29): > 100 µM (inactive)
- GI50 (HL-60): 10.4 µM (inactive)
- GI50 (MOLT-4): > 100 µM (inactive)
- GI50 (BT-549): 26.1 µM (inactive)
- GI50 (SN12C): > 100 µM (inactive)
